EC50 data for eleven molecules are collected here from patent US9499550B2 (BRISTOL-MYERS SQUIBB COMPANY, priority 2012, dated 2016).

Assay [1] relates to HCV genotype 1a (H77 strain) replicon in HUH-7 cells. Kind of assay: HCV replicon luciferase reporter assay, genotype 1a. In kind it is cell-based. The note with it: Hepatitis C virus, Huh-7, 72 h, HCV genotype 1a replicon luciferase, 3 days incubation. Summed up:
(§1)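 Replicon inhibition for both genotypes was measured as Renilla luciferase signal (EnduRen, 7.5 μM final, 2 h) after 3-day, 37° C exposure of replicon-bearing HUH-7 cells in 4% FCS DMEM, 0.5% DMSO. The 1b construct carries S1179I; the 1a H77 construct carries P1496L and S2204I. Twenty-point, 3-fold dilutions were fitted four-parametrically for EC50, and CC50 was taken from multiplexed Cell Titer-Blue.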

Assay [2] concerns HCV genotype 1b (Con1) replicon in HUH-7 cells. Briefly: HCV replicon luciferase reporter assay, genotype 1b. It is filed as cell-based. The note with it: Hepatitis C virus, Huh-7, 72 h, HCV genotype 1b replicon luciferase, 3 days incubation. The method in brief: as §1

pEC50: −log10 of the molar value. Read-outs that look alike come from different tables or passages of the source.

Turning to `COc1ccc2c(O[C@@H]3C[C@H]4C(=O)N[C@]5(C(=O)NS(=O)(=O)C6(C)CC6)C[C@H]5/C=C\CC[C@@H](C)C[C@@H](C)[C@H](NC(=O)OC(C)(C)C(F)(F)F)C(=O)N4C3)nc3c(c2c1)CCCO3` [Compound 6080, 1,1,1-trifluoro-2-methylpropan-2-yl((2R,6S,7R,9R,13aS,14aR,16aS,Z)-2-((9-methoxy-2,3-dihydro-1H-pyrano[2,3-c]isoquinolin-6-yl)oxy)-7,9-dimethyl-14a-(((1-methylcyclopropyl)sulfonyl)carbamoyl)-5,16-dioxo-1,2,3,5,6,7,8,9,10,11,13a,14,14a,15,16,16a-hexadecahydrocyclopropa[e]pyrrolo[1,2-a][1,4]diazacyclopentadecin-6-yl)carbamate], the pEC50 was 9.51 in assay [1] (read-out: LE_1a (EC50)); 9.30 to 10.00 in assay [1] (read-out: LE_1a (EC50, range)); 9.10 in assay [2] (read-out: LE_1b (EC50)); 9.00 to 9.29 in assay [2] (read-out: LE_1b (EC50, range)).

Regarding `COc1ccc2c(O[C@@H]3C[C@H]4C(=O)N[C@]5(C(=O)NS(=O)(=O)C6(C)CC6)C[C@H]5/C=C\CC[C@@H](C)C[C@@H](C)[C@H](NC(=O)OC(C)(C)C(C)(F)F)C(=O)N4C3)nc3c(c2c1)CCCO3` [Compound 6082, 3,3-difluoro-2-methylbutan-2-yl((2R,6S,7R,9R,13aS,14aR,16aS,Z)-2-((9-methoxy-2,3-dihydro-1H-pyrano[2,3-c]isoquinolin-6-yl)oxy)-7,9-dimethyl-14a-(((1-methylcyclopropyl)sulfonyl)carbamoyl)-5,16-dioxo-1,2,3,5,6,7,8,9,10,11,13a,14,14a,15,16,16a-hexadecahydrocyclopropa[e]pyrrolo[1,2-a][1,4]diazacyclopentadecin-6-yl)carbamate], the pEC50 in assay [1] (read-out: LE_1a (EC50, range)) was 9.00 to 9.29; in assay [2] (read-out: LE_1b (EC50, range)), 8.30 to 9.00.

Turning to `COc1ccc2c(O[C@@H]3C[C@H]4C(=O)N[C@]5(C(=O)NS(=O)(=O)C6(C)CC6)C[C@H]5/C=C\CC[C@@H](C)C[C@@H](C)[C@H](NC(=O)OC(C)(C)C(F)F)C(=O)N4C3)nc3c(c2c1)CCCO3` [Compound 6084, 1,1-difluoro-2-methylpropan-2-yl((2R,6S,7R,9R,13aS,14aR,16aS,Z)-2-((9-methoxy-2,3-dihydro-1H-pyrano[2,3-c]isoquinolin-6-yl)oxy)-7,9-dimethyl-14a-(((1-methylcyclopropyl)sulfonyl)carbamoyl)-5,16-dioxo-1,2,3,5,6,7,8,9,10,11,13a,14,14a,15,16,16a-hexadecahydrocyclopropa[e]pyrrolo[1,2-a][1,4]diazacyclopentadecin-6-yl)carbamate], the pEC50 in assay [1] (read-out: LE_1a (EC50, range)) was 9.30 to 10.00; in assay [2] (read-out: LE_1b (EC50, range)), 9.00 to 9.29.

With `CC[C@@H]1C[C@H](C)CC/C=C\[C@@H]2C[C@@]2(C(=O)NS(=O)(=O)C2(CF)CC2)NC(=O)[C@@H]2C[C@@H](Oc3nc4c(c5cc(OC)ccc35)CCCO4)CN2C(=O)[C@H]1NC(=O)OC(C)(C)C(F)(F)F` [Compound 6086, 1,1,1-trifluoro-2-methylpropan-2-yl((2R,6S,7R,9R,13aS,14aR,16aS,Z)-7-ethyl-14a-(((1-(fluoromethyl)cyclopropyl)sulfonyl)carbamoyl)-2-((9-methoxy-2,3-dihydro-1H-pyrano[2,3-c]isoquinolin-6-yl)oxy)-9-methyl-5,16-dioxo-1,2,3,5,6,7,8,9,10,11,13a,14,14a,15,16,16a-hexadecahydrocyclopropa[e]pyrrolo[1,2-a][1,4]diazacyclopentadecin-6-yl)carbamate], the negative-log EC50 (pEC50) was 7.46 to 8.30 in assay [1] (read-out: LE_1a (EC50, range)) and 7.46 to 8.30 in assay [2] (read-out: LE_1b (EC50, range)).

As to `CC[C@@H]1C[C@H](C)CC/C=C\[C@@H]2C[C@@]2(C(=O)NS(=O)(=O)C2(CF)CC2)NC(=O)[C@@H]2C[C@@H](Oc3nc4c(c5cc(OC)ccc35)CCCO4)CN2C(=O)[C@H]1NC(=O)OC(C)(C)C(C)(F)F` [Compound 6088, 3,3-difluoro-2-methylbutan-2-yl((2R,6S,7R,9R,13aS,14aR,16aS,Z)-7-ethyl-14a-(((1-(fluoromethyl)cyclopropyl)sulfonyl)carbamoyl)-2-((9-methoxy-2,3-dihydro-1H-pyrano[2,3-c]isoquinolin-6-yl)oxy)-9-methyl-5,16-dioxo-1,2,3,5,6,7,8,9,10,11,13a,14,14a,15,16,16a-hexadecahydrocyclopropa[e]pyrrolo[1,2-a][1,4]diazacyclopentadecin-6-yl)carbamate], the pEC50 in assay [1] (read-out: LE_1a (EC50, range)) is 7.46 to 8.30; in assay [2] (read-out: LE_1b (EC50, range)), 7.46 to 8.30.

Turning to `CC[C@@H]1C[C@H](C)CC/C=C\[C@@H]2C[C@@]2(C(=O)NS(=O)(=O)C2(C)CC2)NC(=O)[C@@H]2C[C@@H](Oc3nc4c(c5cc(OC)ccc35)CCCO4)CN2C(=O)[C@H]1NC(=O)OC(C)(C)C(C)(F)F` [Compound 6090, 3,3-difluoro-2-methylbutan-2-yl((2R,6S,7R,9R,13aS,14aR,16aS,Z)-7-ethyl-2-((9-methoxy-2,3-dihydro-1H-pyrano[2,3-c]isoquinolin-6-yl)oxy)-9-methyl-14a-(((1-methylcyclopropyl)sulfonyl)carbamoyl)-5,16-dioxo-1,2,3,5,6,7,8,9,10,11,13a,14,14a,15,16,16a-hexadecahydrocyclopropa[e]pyrrolo[1,2-a][1,4]diazacyclopentadecin-6-yl)carbamate], the pEC50 in assay [1] (read-out: LE_1a (EC50, range)) is 9.00 to 9.29; in assay [2] (read-out: LE_1b (EC50, range)), 9.00 to 9.29.

Regarding `CC[C@@H]1C[C@H](C)CC/C=C\[C@@H]2C[C@@]2(C(=O)NS(=O)(=O)C2(C)CC2)NC(=O)[C@@H]2C[C@@H](Oc3nc4c(c5cc(OC)ccc35)CCCO4)CN2C(=O)[C@H]1NC(=O)OC(C)(C)C(F)F` [Compound 6092, 1,1-difluoro-2-methylpropan-2-yl((2R,6S,7R,9R,13aS,14aR,16aS,Z)-7-ethyl-2-((9-methoxy-2,3-dihydro-1H-pyrano[2,3-c]isoquinolin-6-yl)oxy)-9-methyl-14a-(((1-methylcyclopropyl)sulfonyl)carbamoyl)-5,16-dioxo-1,2,3,5,6,7,8,9,10,11,13a,14,14a,15,16,16a-hexadecahydrocyclopropa[e]pyrrolo[1,2-a][1,4]diazacyclopentadecin-6-yl)carbamate], the negative-log EC50 (pEC50) in assay [1] (read-out: LE_1a (EC50, range)) is 8.30 to 9.00; in assay [2] (read-out: LE_1b (EC50, range)) it was 8.30 to 9.00.

As to `CC[C@@H]1C[C@H](C)CC/C=C\[C@@H]2C[C@@]2(C(=O)NS(=O)(=O)C2(C)CC2)NC(=O)[C@@H]2C[C@@H](Oc3nc4c(c5cc(OC)ccc35)CCCO4)CN2C(=O)[C@H]1NC(=O)OC(C)(C)C(F)(F)F` [Compound 6095, 1,1,1-trifluoro-2-methylpropan-2-yl((2R,6S,7R,9R,13aS,14aR,16aS,Z)-7-ethyl-2-((9-methoxy-2,3-dihydro-1H-pyrano[2,3-c]isoquinolin-6-yl)oxy)-9-methyl-14a-(((1-methylcyclopropyl)sulfonyl)carbamoyl)-5,16-dioxo-1,2,3,5,6,7,8,9,10,11,13a,14,14a,15,16,16a-hexadecahydrocyclopropa[e]pyrrolo[1,2-a][1,4]diazacyclopentadecin-6-yl)carbamate], the negative-log EC50 (pEC50) in assay [1] (read-out: LE_1a (EC50, range)) is 9.00 to 9.29; in assay [2] (read-out: LE_1b (EC50, range)), 9.30 to 10.00.

Take `CC(C)Oc1cc2ccccc2c(O[C@@H]2C[C@H]3C(=O)N[C@]4(C(=O)NS(=O)(=O)C5(C)CC5)C[C@H]4/C=C\CC[C@@H](C)C[C@@H](C)[C@H](NC(=O)OC(C)(C)C)C(=O)N3C2)n1` [Compound 6098, tert-butyl ((2R,6S,7R,9R,13aS,14aR,16aS,Z)-2-((3-isopropoxyisoquinolin-1-yl)oxy)-7,9-dimethyl-14a-(((1-methylcyclopropyl)sulfonyl)carbamoyl)-5,16-dioxo-1,2,3,5,6,7,8,9,10,11,13a,14,14a,15,16,16a-hexadecahydrocyclopropa[e]pyrrolo[1,2-a][1,4]diazacyclopentadecin-6-yl)carbamate]: the negative logarithm of the EC50 (pEC50) was 9.00 to 9.29 in assay [1] (read-out: LE_1a (EC50, range)) and 9.30 to 10.00 in assay [2] (read-out: LE_1b (EC50, range)).

Turning to `CCOc1cc2ccccc2c(O[C@@H]2C[C@H]3C(=O)N[C@]4(C(=O)NS(=O)(=O)C5(C)CC5)C[C@H]4/C=C\CC[C@H](C)C[C@@H](C)[C@H](NC(=O)OC(C)(C)C(F)(F)F)C(=O)N3C2)n1` [Compound 6099, 1,1,1-trifluoro-2-methylpropan-2-yl((2R,6S,7R,9S,13aS,14aR,16aS,Z)-2-((3-ethoxyisoquinolin-1-yl)oxy)-7,9-dimethyl-14a-(((1-methylcyclopropyl)sulfonyl)carbamoyl)-5,16-dioxo-1,2,3,5,6,7,8,9,10,11,13a,14,14a,15,16,16a-hexadecahydrocyclopropa[e]pyrrolo[1,2-a][1,4]diazacyclopentadecin-6-yl)carbamate], the pEC50 was 8.30 to 9.00 in assay [1] (read-out: LE_1a (EC50, range)) and 8.30 to 9.00 in assay [2] (read-out: LE_1b (EC50, range)).

Regarding `CCOc1cc2ccccc2c(O[C@@H]2C[C@H]3C(=O)N[C@]4(C(=O)NS(=O)(=O)C5(C)CC5)C[C@H]4/C=C\CC[C@@H](C)C[C@@H](C)[C@H](NC(=O)OC(C)(C)C(F)(F)F)C(=O)N3C2)n1` [Compound 6100, 1,1,1-trifluoro-2-methylpropan-2-yl((2R,6S,7R,9R,13aS,14aR,16aS,Z)-2-((3-ethoxyisoquinolin-1-yl)oxy)-7,9-dimethyl-14a-(((1-methylcyclopropyl)sulfonyl)carbamoyl)-5,16-dioxo-1,2,3,5,6,7,8,9,10,11,13a,14,14a,15,16,16a-hexadecahydrocyclopropa[e]pyrrolo[1,2-a][1,4]diazacyclopentadecin-6-yl)carbamate], the pEC50 in assay [1] (read-out: LE_1a (EC50, range)) is 8.30 to 9.00; in assay [2] (read-out: LE_1b (EC50, range)), 9.30 to 10.00.

The pEC50 is the negative decadic logarithm of the EC50, by convention in mol/L.
